Test results taken from patent US11246946B2, “Methods of treatment using ultrasmall nanoparticles to induce cell death of nutrient-deprived cancer cells via ferroptosis” (priority 2015, dated 2022).

How the values were obtained:
[1] = tested on: MCF10A human mammary epithelial cells; test: Cell death (Sytox green+) by time-lapse microscopy, MCF10A; type: cell-based; details: for effect on nanoparticle-induced cell death / effect on α-MSH-PEG-C′ dot-induced cell death: AA-st plus 15 μM α-MSH-PEG-C′ dots, 40 hours; for effect on nanoparticle-induced cell death: 50 μM BHA, 200 μM ascorbic acid, 100 μM Trolox, 10 mM NAC, 5 mM GSH; for effect on α-MSH-PEG-C′ dot-induced cell death: inhibitor 1 μM
Method: (§1) MEF and HT1080 cells were cultured in Dulbecco's modified Eagle's medium (DMEM) (MSKCC Media Preparation Facility) supplemented with 10% fetal bovine serum (FBS, Sigma, St. Louis, Mo.) with penicillin/streptomycin (Corning, Corning, N.Y.). MCF10A cells were cultured in DMEM/F12 (Gibco, Grand Island, N.Y.) supplemented with 5% horse serum (Atlanta Biologicals, Flowery Branch, Ga.), 20 ng/ml EGF (Peprotech, Rocky Hill, N.J.), 10 μg/ml insulin (Sigma), 0.5 μg/ml hydrocortisone (Sigma), and 100 ng/ml cholera toxin (Sigma) with penicillin/streptomycin. M21, BxPC3, H1650, and 786-O cells were cultured in RPMI-1640 (Gibco) supplemented with 10% FBS with penicillin/streptomycin. SKOV3 cells were cultured in McCoy's 5a modified medium (Gibco) supplemented with 10% FBS with penicillin/streptomycin. Amino acid-free medium was prepared by dialyzing heat-inactivated FBS (for MEF, HT1080, M21, BxPC3, H1650, and SKOV3 cells) or horse serum (for MCF10A cells) for 4 h, followed by overnight incubation at 4° C. in phosphate-buffered saline (PBS) in MWCO 3500 dialysis tubing (21-152-9; Fisherbrand, Pittsburgh, Pa.) and addition to base media prepared without amino acids. PRetro-Lamp1-GFP was introduced into M21 cells by retroviral transduction, and stable cell lines were selected with puromycin (2 μg ml^−1).
(§2) NIS Elements software (Nikon, Melville, N.Y.) was used.

lipid ROS = test: C11-BODIPY imaging of lipid ROS before cell death; type: cell-based; details: erastin 5 μM plus liproxstatin-1, 6 hours after control cells underwent cell death
Description: as §2

HT-1080 tumors = test: HT-1080 flank xenograft, multi-dose i.v. particle treatment; type: in vivo, mice
Method: All animal experiments were performed in accordance with protocols approved by the Institutional Animal Care and Use Committee of Memorial Sloan-Kettering Cancer Center and followed NIH guidelines for animal welfare. Human melanoma (M21) xenografts were generated on the shaved flanks of immunodeficient male SCID/Beige (C.B-17/IcrHsd-Prkdc^scidLyst^bg-J) mice (6-8 weeks old; Harlan Laboratories, South Easton, Mass.). Human sarcoma HT1080 and 786-O flank xenografts[…]) were additionally generated using the same model for intravenous particle injection. Average initial tumor volumes of 45-75 mm^3 were used for all experiments.
Five million M21 cells, cultured in serum-supplemented media, were subcutaneously implanted into the right flank of mice using a 23-gauge trocar needle to establish melanoma xenografts 2 days after particle exposure (n=3) or without exposure (n=3). […] Tumor sizes were measured using calipers over the treatment interval. […] Two perpendicular diameters (d1≤d2) of the tumor used to calculate the tumor volume (V; 4/3·π·d1^2·d2/8) were measured with calipers daily following the injection of cells.
Volume-time profiles were compared between the two treatment groups using robust standard errors calculated using by a generalized estimating equations approach. […]

[2] = tested on: mouse embryo fibroblasts (MEF); test: Cell death (Sytox green+) by time-lapse microscopy, MEF; type: cell-based; details: wt MEFs, 100 ng/ml TNFα, 1 μg/ml CHX and 20 μM zVAD, plus 30 μM Nec-1
Method: as §1, §2

[3] = tested on: ferritin heavy chain (FTH1); test: Ferritin heavy chain western blot; type: cell-based; details: amino acid-starved cells, 24 hours; 15 μM particles, FAC 400 μM, DFO 100 μM
amino acid-starved cells = details: amino acid-starvation conditions, FAC 400 μM
glutathione = test: Glutathione quantification; type: cell-based; details: MCF10A, full or amino acid-free media, 24 hours; 15 μM particles or 400 μM BSO
Method: For glutathione measurements, HT-1080 cells were plated on 6 cm cell culture dishes, incubated with 15 μM α-MSH-tagged nanoparticles in amino acid-free DMEM+10% dialyzed FBS and harvested approximately 2 hours before the expected time of death. As controls, cells were treated with a mix of 3 parts full or amino acid-free DMEM and 1 part H2O, or 100 μM BSO in full media. Cells were washed 3× with cold PBS and harvested through cell scraping in 50 μL cold lysis buffer. Protein concentrations were measured using the BCA assay and sample volumes were adjusted so that each had the same final protein concentration. Total glutathione was measured using the Glutathione Assay Kit (Cayman Chemicals, 703002) and reduced glutathione was measured using the QuantiChrom™ Glutathione Assay Kit (BioAssay Systems, DIGT-250) according to manufacturer's instructions.

`CC(=O)N[C@@H](CS)C(=O)O` [N-acetylcysteine] was tested, and the “effect on nanoparticle-induced cell death” value [1] was “inhibited”.

For `N[C@@H](CCC(=O)N[C@@H](CS)C(=O)NCC(=O)O)C(=O)O` [glutathione, Glutathione], the “effect on nanoparticle-induced cell death” value [1] was “inhibited”.

For `O=C1O[C@H]([C@@H](O)CO)C(O)=C1O` [ascorbic acid, Ascorbic acid], the “effect on nanoparticle-induced cell death” value [1] was “inhibited”.

With `Clc1cccc(CN=C2Nc3ccccc3NC23CCNCC3)c1` [liproxstatin-1, Liproxstatin-1] the “effect on α-MSH-PEG-C′ dot-induced cell death” value [1] was “rescued cell viability”, the “effect on C11-BODIPY staining induced by erastin” value (lipid ROS) was “inhibits C11-BODIPY staining induced by erastin treatment” and the “average daily tumor growth” value (HT-1080 tumors; HT1080, particle-exposed tumors (three 60 μM i.v. doses) treated with daily i.p. liproxstatin-1 125 mg/kg, 10 days, 95% CI: 10.1-18.9) was 14.6 mm^3. The “difference in average daily tumor growth, particles plus liproxstatin-1 vs particles alone” value (HT-1080 tumors; HT1080, CI: 13.1 to 17.6, p<0.001) was 15.3 mm^3.

In the case of `Cc1c(C)c2c(c(C)c1O)CCC(C)(C(=O)O)O2` (stereo not shown) [trolox, Trolox], the “effect on nanoparticle-induced cell death” value [1] is reported as “inhibited”.

For `CCOC(=O)c1ccc(NC2CCCCC2)c(N)c1` [ferrostatin-1, Ferrostatin-1], the “effect on α-MSH-PEG-C′ dot-induced cell death” value [1] was “rescued cell viability”.

With `C[C@@H]1C[C@@H]([C@H](O)CC2CC(=O)NC(=O)C2)C(=O)[C@@H](C)C1` [cycloheximide, Cycloheximide] the “temporal pattern of apoptotic cell death” value ([1]; 50 μg/ml cycloheximide) was “asynchronous pattern of cell death”.

`CN1C(=O)C(Cc2c[nH]c3ccccc23)NC1=S` (stereo not shown) [necrostatin-1, Necrostatin-1] was tested, and the “cell death on necroptosis induction” value [2] was “do not undergo cell death”.

`COc1ccc(O)c(C(C)(C)C)c1` [butylated hydroxyanisole, Butylated hydroxyanisole] was tested, and the “effect on nanoparticle-induced cell death” value [1] was “inhibited”.

`C/C=C/[C@H]1O[C@@](O)([C@@H](C)[C@H](O)[C@H](C)[C@H]2OC(=O)/C(OC)=C/C(C)=C/[C@@H](C)[C@@H](O)[C@@H](CC)[C@@H](O)[C@H](C)C/C(C)=C/C=C/[C@@H]2OC)C[C@@H](O[C@H]2C[C@@H](O)[C@H](OC(N)=O)[C@@H](C)O2)[C@@H]1C` [concanamycin A, Concanamycin A] was tested, and the cell death morphology ([1]; amino acid-free media, 100 nM ConA) was “undergo cell death with morphologic features of apoptosis”.

Ferric ammonium citrate was tested, and the “ferritin heavy chain (FTH1) expression” value [3] was “increased” and the “percent cell death (Sytox green+)” value (amino acid-starved cells) was “sufficient to mimic α-MSH-PEG-C′ dot-induced death”.

For `CCCCS(=N)(=O)CCC(N)C(=O)O` (stereo not shown) [BSO, Buthionine sulphoximine], the “reduced glutathione (GSH) levels” value (glutathione) was “reduce glutathione levels”.
